Test results as given in ChEMBL document CHEMBL3112480, “γ-Alkylidene-γ-lactones and isobutylpyrrol-2(5H)-ones analogues to rubrolides as inhibitors of biofilm formation by gram-positive and gram-negative bacteria” (Bioorg Med Chem Lett, 2014).
In brackets after ≈: the same amount, converted by molar mass.

How the values were obtained:
[1] = test system: Streptococcus mutans; assay: Antibacterial activity against Streptococcus mutans ATCC 25175 assessed as effect on planktonic growth at 21.9 ug/ml after 20 hrs relative to control; assay type: functional
[2] = test system: Streptococcus mutans; assay: Antibacterial activity against Streptococcus mutans ATCC 25175 assessed as effect on planktonic growth at 43.8 ug/ml after 20 hrs relative to control; assay type: functional
[3] = test system: Streptococcus mutans; assay: Antibacterial activity against Streptococcus mutans ATCC 25175 assessed as effect on planktonic growth at 87.5 ug/ml after 20 hrs relative to control; assay type: functional
[4] = test system: Staphylococcus aureus; assay: Antibacterial activity against Staphylococcus aureus ATCC 25923 assessed as effect on planktonic growth at 0.17 ug/ml after 20 hrs relative to control; assay type: functional
[5] = test system: Staphylococcus aureus; assay: Antibacterial activity against Staphylococcus aureus ATCC 25923 assessed as effect on planktonic growth at 0.34 ug/ml after 20 hrs relative to control; assay type: functional
[6] = test system: Staphylococcus aureus; assay: Antibacterial activity against Staphylococcus aureus ATCC 25923 assessed as effect on planktonic growth at 0.68 ug/ml after 20 hrs relative to control; assay type: functional
[7] = test system: Staphylococcus aureus; assay: Antibacterial activity against Staphylococcus aureus ATCC 25923 assessed as effect on planktonic growth at 1.37 ug/ml after 20 hrs relative to control; assay type: functional
[8] = test system: Staphylococcus aureus; assay: Antibacterial activity against Staphylococcus aureus ATCC 25923 assessed as effect on planktonic growth at 5.5 ug/ml after 20 hrs relative to control; assay type: functional
[9] = test system: Staphylococcus aureus; assay: Antibacterial activity against Staphylococcus aureus ATCC 25923 assessed as effect on planktonic growth at 2.73 ug/ml after 20 hrs relative to control; assay type: functional
[10] = test system: Staphylococcus aureus; assay: Antibacterial activity against Staphylococcus aureus ATCC 25923 assessed as effect on planktonic growth at 10.9 ug/ml after 20 hrs relative to control; assay type: functional
[11] = test system: Staphylococcus aureus; assay: Antibacterial activity against Staphylococcus aureus ATCC 25923 assessed as effect on planktonic growth at 21.9 ug/ml after 20 hrs relative to control; assay type: functional
[12] = test system: Staphylococcus aureus; assay: Antibacterial activity against Staphylococcus aureus ATCC 25923 assessed as effect on planktonic growth at 43.8 ug/ml after 20 hrs relative to control; assay type: functional
[13] = test system: Staphylococcus aureus; assay: Antibacterial activity against Staphylococcus aureus ATCC 25923 assessed as effect on planktonic growth at 87.5 ug/ml after 20 hrs relative to control; assay type: functional
[14] = test system: Pseudomonas aeruginosa; assay: Antibacterial activity against Pseudomonas aeruginosa ATCC 27853 assessed as effect on planktonic growth at 0.17 ug/ml after 20 hrs relative to control; assay type: functional
[15] = test system: Pseudomonas aeruginosa; assay: Antibacterial activity against Pseudomonas aeruginosa ATCC 27853 assessed as effect on planktonic growth at 0.34 ug/ml after 20 hrs relative to control; assay type: functional
[16] = test system: Pseudomonas aeruginosa; assay: Antibacterial activity against Pseudomonas aeruginosa ATCC 27853 assessed as effect on planktonic growth at 0.68 ug/ml after 20 hrs relative to control; assay type: functional
[17] = test system: Pseudomonas aeruginosa; assay: Antibacterial activity against Pseudomonas aeruginosa ATCC 27853 assessed as effect on planktonic growth at 1.37 ug/ml after 20 hrs relative to control; assay type: functional
[18] = test system: Pseudomonas aeruginosa; assay: Antibacterial activity against Pseudomonas aeruginosa ATCC 27853 assessed as effect on planktonic growth at 2.73 ug/ml after 20 hrs relative to control; assay type: functional
[19] = test system: Pseudomonas aeruginosa; assay: Antibacterial activity against Pseudomonas aeruginosa ATCC 27853 assessed as effect on planktonic growth at 5.5 ug/ml after 20 hrs relative to control; assay type: functional
[20] = test system: Pseudomonas aeruginosa; assay: Antibacterial activity against Pseudomonas aeruginosa ATCC 27853 assessed as effect on planktonic growth at 10.9 ug/ml after 20 hrs relative to control; assay type: functional
[21] = test system: Pseudomonas aeruginosa; assay: Antibacterial activity against Pseudomonas aeruginosa ATCC 27853 assessed as effect on planktonic growth at 21.9 ug/ml after 20 hrs relative to control; assay type: functional
[22] = test system: Pseudomonas aeruginosa; assay: Antibacterial activity against Pseudomonas aeruginosa ATCC 27853 assessed as effect on planktonic growth at 43.8 ug/ml after 20 hrs relative to control; assay type: functional
[23] = test system: Pseudomonas aeruginosa; assay: Antibacterial activity against Pseudomonas aeruginosa ATCC 27853 assessed as effect on planktonic growth at 87.5 ug/ml after 20 hrs relative to control; assay type: functional
[24] = test system: Staphylococcus epidermidis; assay: Antibacterial activity against Staphylococcus epidermidis ATCC 35547 assessed as effect on planktonic growth at 0.17 ug/ml after 20 hrs relative to control; assay type: functional
[25] = test system: Staphylococcus epidermidis; assay: Antibacterial activity against Staphylococcus epidermidis ATCC 35547 assessed as effect on planktonic growth at 0.34 ug/ml after 20 hrs relative to control; assay type: functional
[26] = test system: Staphylococcus epidermidis; assay: Antibacterial activity against Staphylococcus epidermidis ATCC 35547 assessed as effect on planktonic growth at 0.68 ug/ml after 20 hrs relative to control; assay type: functional
[27] = test system: Staphylococcus epidermidis; assay: Antibacterial activity against Staphylococcus epidermidis ATCC 35547 assessed as effect on planktonic growth at 1.37 ug/ml after 20 hrs relative to control; assay type: functional
[28] = test system: Staphylococcus epidermidis; assay: Antibacterial activity against Staphylococcus epidermidis ATCC 35547 assessed as effect on planktonic growth at 2.73 ug/ml after 20 hrs relative to control; assay type: functional
[29] = test system: Staphylococcus epidermidis; assay: Antibacterial activity against Staphylococcus epidermidis ATCC 35547 assessed as effect on planktonic growth at 5.5 ug/ml after 20 hrs relative to control; assay type: functional
[30] = test system: Staphylococcus epidermidis; assay: Antibacterial activity against Staphylococcus epidermidis ATCC 35547 assessed as effect on planktonic growth at 10.9 ug/ml after 20 hrs relative to control; assay type: functional
[31] = test system: Staphylococcus epidermidis; assay: Antibacterial activity against Staphylococcus epidermidis ATCC 35547 assessed as effect on planktonic growth at 21.9 ug/ml after 20 hrs relative to control; assay type: functional
[32] = test system: Staphylococcus epidermidis; assay: Antibacterial activity against Staphylococcus epidermidis ATCC 35547 assessed as effect on planktonic growth at 43.8 ug/ml after 20 hrs relative to control; assay type: functional
[33] = test system: Staphylococcus epidermidis; assay: Antibacterial activity against Staphylococcus epidermidis ATCC 35547 assessed as effect on planktonic growth at 87.5 ug/ml after 20 hrs relative to control; assay type: functional
[34] = test system: Staphylococcus aureus; assay: Induction of biofilm formation in Staphylococcus aureus ATCC 25923 at 44 ug/ml after 20 hrs by crystal-violet staining method relative to control; assay type: organism-based
[35] = test system: Pseudomonas aeruginosa; assay: Antibacterial activity against Pseudomonas aeruginosa ATCC 27853 assessed as inhibition of biofilm formation after 20 hrs by crystal-violet staining method; assay type: functional, organism-based; settings: for IC50: ATCC 27853, 20 h
[36] = test system: Staphylococcus epidermidis; assay: Antibacterial activity against Staphylococcus epidermidis ATCC 35547 assessed as inhibition of biofilm formation after 20 hrs by crystal-violet staining method; assay type: functional, organism-based; settings: for IC50: ATCC 35547, 20 h
[37] = test system: Streptococcus mutans; assay: Antibacterial activity against Streptococcus mutans ATCC 25175 assessed as effect on planktonic growth at 0.17 ug/ml after 20 hrs relative to control; assay type: functional
[38] = test system: Streptococcus mutans; assay: Antibacterial activity against Streptococcus mutans ATCC 25175 assessed as effect on planktonic growth at 0.34 ug/ml after 20 hrs relative to control; assay type: functional
[39] = test system: Streptococcus mutans; assay: Antibacterial activity against Streptococcus mutans ATCC 25175 assessed as effect on planktonic growth at 0.68 ug/ml after 20 hrs relative to control; assay type: functional
[40] = test system: Streptococcus mutans; assay: Antibacterial activity against Streptococcus mutans ATCC 25175 assessed as effect on planktonic growth at 1.37 ug/ml after 20 hrs relative to control; assay type: functional
[41] = test system: Streptococcus mutans; assay: Antibacterial activity against Streptococcus mutans ATCC 25175 assessed as effect on planktonic growth at 2.73 ug/ml after 20 hrs relative to control; assay type: functional
[42] = test system: Streptococcus mutans; assay: Antibacterial activity against Streptococcus mutans ATCC 25175 assessed as effect on planktonic growth at 5.5 ug/ml after 20 hrs relative to control; assay type: functional
[43] = test system: Streptococcus mutans; assay: Antibacterial activity against Streptococcus mutans ATCC 25175 assessed as effect on planktonic growth at 10.9 ug/ml after 20 hrs relative to control; assay type: functional
[44] = test system: Streptococcus mutans; assay: Antibacterial activity against Streptococcus mutans ATCC 25175 assessed as inhibition of biofilm formation after 20 hrs by crystal-violet staining method; assay type: functional; settings: ATCC 25175, 20 h
[45] = test system: Streptococcus mutans; assay: Antibacterial activity against Streptococcus mutans ATCC 25175 assessed as inhibition of biofilm formation at 44 ug/ml after 20 hrs by crystal-violet staining method relative to control; assay type: functional; settings: ATCC 25175, 20 h
[46] = test system: Staphylococcus aureus; assay: Antibacterial activity against Staphylococcus aureus ATCC 25923 assessed as inhibition of biofilm formation after 20 hrs by crystal-violet staining method; assay type: functional, organism-based; settings: ATCC 25923, 20 h

Question: Which results are given for `COc1ccc(C)cc1C1=C(Br)C(=O)N(CC(C)C)/C1=C\c1ccccc1Cl`?
Answer: Activity [1]: 14.6%; Activity [2]: 19.2%; Activity [3]: 49.5%; Activity [4]: -4.2%; Activity [5]: -3.3%; Activity [6]: -4.9%; Activity [7]: -13.4%; Activity [8]: -12%; Activity [9]: -6.6%; Activity [10]: -13.4%; Activity [11]: -6.3%; Activity [12]: 8.9%; Activity [13]: 33.8%; Activity [14]: -1.9%; Activity [15]: -5.5%; Activity [16]: -7.7%; Activity [17]: -10.6%; Activity [18]: -6%; Activity [19]: -13.8%; Activity [20]: -13.8%; Activity [21]: -13.3%; Activity [22]: -11.1%; Activity [23]: 0.8%; Activity [24]: 4%; Activity [25]: 17.8%; Activity [26]: 3.4%; Activity [27]: -4.4%; Activity [28]: -5.5%; Activity [29]: 3.3%; Activity [30]: 13.1%; Activity [31]: 31.7%; Activity [32]: 46.4%; Activity [33]: 65.8%; Activity [34]: 3.6%; inhibition [35]: Dose-dependent effect; IC50 [35]: 5.7 µg/mL (≈ 12.4 µM); inhibition [36]: Dose-dependent effect; IC50 [36]: > 87.5 µg/mL; Activity [37]: -4.6%; Activity [38]: -1.4%; Activity [39]: -2.1%; Activity [40]: -0.4%; Activity [41]: 3.9%; Activity [42]: 8.9%; Activity [43]: 7.8%

Question: For `COc1ccccc1C1=C(Br)C(=O)N(CC(C)C)/C1=C/c1ccc(C(F)(F)F)cc1`, which Activity [1] is on record?
Answer: -12%

Question: And the Activity [2]?
Answer: -55.3%

Question: What about the Activity [3] of the same compound?
Answer: -46.9%

Question: And the Activity [4]?
Answer: 0%

Question: And the Activity [5]?
Answer: -1.6%

Question: And the Activity [6]?
Answer: -5.2%

Question: What about the Activity [7] of the same compound?
Answer: -14.9%

Question: And the Activity [8]?
Answer: -18.5%

Question: What about the Activity [9] of the same compound?
Answer: -21.7%

Question: And the Activity [10]?
Answer: -3.8%

Question: What about the Activity [11] of the same compound?
Answer: 4.9%

Question: What about the Activity [12] of the same compound?
Answer: 59.8%

Question: And the Activity [13]?
Answer: 91%

Question: And the Activity [14]?
Answer: -2.3%

Question: What about the Activity [15] of the same compound?
Answer: -5.2%

Question: What about the Activity [16] of the same compound?
Answer: -4%

Question: What about the Activity [17] of the same compound?
Answer: -10.4%

Question: What about the Activity [18] of the same compound?
Answer: -13.1%

Question: What about the Activity [19] of the same compound?
Answer: -15.8%

Question: What about the Activity [20] of the same compound?
Answer: -4.1%

Question: What about the Activity [21] of the same compound?
Answer: 9.1%

Question: What about the Activity [22] of the same compound?
Answer: 34.8%

Question: And the Activity [23]?
Answer: 30.6%

Question: And the Activity [24]?
Answer: -16.7%

Question: What about the Activity [25] of the same compound?
Answer: -2.2%

Question: What about the Activity [26] of the same compound?
Answer: -10.2%

Question: What about the Activity [27] of the same compound?
Answer: 1.1%

Question: What about the Activity [28] of the same compound?
Answer: -6.4%

Question: And the Activity [29]?
Answer: 1%

Question: And the Activity [30]?
Answer: 36.6%

Question: And the Activity [31]?
Answer: 88.5%

Question: What about the Activity [32] of the same compound?
Answer: 40.1%

Question: And the Activity [33]?
Answer: -5.5%

Question: What about the IC50 [44] of the same compound?
Answer: 58.9 µM

Question: And the inhibition at 44 µg/mL [45]?
Answer: 88.8%

Question: And the IC50 [46]?
Answer: 95.1 µM

Question: What about the inhibition [35] of the same compound?
Answer: Dose-dependent effect

Question: What about the IC50 [35] of the same compound?
Answer: 25.2 µg/mL (≈ 52.5 µM)

Question: What about the inhibition [36] of the same compound?
Answer: Dose-dependent effect

Question: What about the IC50 [36] of the same compound?
Answer: 12.2 µg/mL (≈ 25.4 µM)

Question: What about the Activity [37] of the same compound?
Answer: 7.9%

Question: What about the Activity [38] of the same compound?
Answer: -5.4%

Question: And the Activity [39]?
Answer: 6%

Question: And the Activity [40]?
Answer: 10.6%

Question: And the Activity [41]?
Answer: -0.8%

Question: And the Activity [42]?
Answer: -15.8%

Question: And the Activity [43]?
Answer: -19.3%
